Where “and” joins values, the source holds several entries; their conditions need not be identical. Equal values may be shown once. Values belong to the molecule of their own block, whether it stands above or below them.
What was measured:
[1] = tested on: erythrocyte membranes; assay: FTIR membrane phase transitions of erythrocytes
[2] = tested on: human platelets; assay: Loading of platelets with trehalose (anthrone quantification); assay type: cell-based; conditions: 37° C., from 0 to 2 hours
Procedure: Washing of Platelets. Platelet concentrations were obtained from the Sacramento blood center or from volunteers in our laboratory. Platelet rich plasma was centrifuged for 8 minutes at 320×g to remove erythrocytes and leukocytes. The supernatant was pelleted and washed two times (480×g for 22 minutes, 480×g for 15 minutes) in buffer A (100 MM NaCl, 10 MM KCl, 10 mM EGTA, 10 mM imidazole, pH 6.8). Platelet counts were obtained on a Coulter counter T890 (Coulter, Inc., Miami, Fla.).
Loading of Platelets with Trehalose. Washed platelets in a concentration of 1-2 10^9 platelets/ml were incubated at various temperatures in the presence of 1-20 mg/ml trehalose. […] The amount of trehalose in the platelets was quantified using the anthrone reaction (Umbreit et al., Mamometric and Biochemical Techniques, 5th Edition, 1972). […] Then the samples were cooled on ice and the absorbance was measured at 620 nm on a Perkin Elmer spectrophotometer. The amount of platelet associated trehalose was determined using a standard curve of trehalose.
Quantification of Trehalose and LYCH Concentration. Uptake was calculated for each sample as micrograms of trehalose or LYCH per platelet. The internal trehalose concentration was calculated assuming a platelet radius of 1.2 μm and by assuming that 50% of the platelet volume is taken up by the cytosol (rest is membranes). […]

[3] = State diagram (glass transition temperature vs water content) by differential scanning calorimeter; assay type: physicochemical; conditions: FIG. 40, assuming sample temperature of −50° C.
From the text: In another embodiment of the invention, it has been discovered that protein alters the physical properties of a preservative solution. More specifically, it has been discovered that the protein albumin alters the physical properties of the oligosaccharide trehalose solution as broadly illustrated in FIG. 40, which are graphs representing state diagrams (e.g., glass transition temperature vs. water content) for trehalose:water mixtures and for trehalose-albumin(1/1, wt/wt):water mixtures. A state diagram is a measure of the glass transition temperatures (Tg) for the respective mixtures (i.e., the various preservative:water mixtures and the various preservative-protein:water mixtures). The state diagrams broadly illustrated in FIG. 40 were obtained by respectively freeze-drying trehalose alone and freeze-drying a 1:1 (wt:wt) trehalose:albumin solution, and then adding back known amounts of water to the respective freeze-dried solutions. The glass transition temperatures for the trehalose:water solution and for the trehalose/albumin:solution were measured by a differential scanning calorimeter with conventional methods.

[4] = tested on: mesenchymal stem cells; assay: Growth curves of mesenchymal stem cells with 90 mM trehalose; assay type: cell-based, human
Procedure: Growth Curves. MSCs were plated into 12-welled plates at approximately the same seeding density used for T-185 flasks in standard Osiris protocols (5900 cells/cm^2 with fluid volume of 0.189 mL/cm^2). Three wells for each condition at each time point were trypsinized and counted. Data for cells grown in the presence of trehalose were lost for the first two time points. FIG. 13 is a graph illustrating growth curves for the mesenchymal stem cells in the presence or absence of 90 mM trehalose with the open triangle data representing cells grown in standard medium for 24 hours, after which 90 mM trehalose was added.

[5] = tested on: human platelets; assay: Stability of platelets during trehalose incubation (microscopy, flow cytometric analysis); assay type: cell-based
Procedure: The uptake of trehalose is linear in the range from 0 to 30 mM external trehalose. The highest internal trehalose concentration is obtained with 50 mM external trehalose. At higher concentrations than 50 mM the internal trehalose concentration decreases again. Even when the loading buffer at these high trehalose concentrations is corrected for isotonicity by adjusting the salt concentration, the loading efficiency remains low. Platelets become swollen after 4 hours incubation in 75 mM trehalose.
The stability of the platelets during a 4 hours incubation period was studied using microscopy and flow cytometric analysis. […] No signs of microvesicle formation could be observed after 4 hours incubation, as can be judged by the stable relative proportion of microvesicle gated cells (less than 3%). The formation of microvesicles is usually considered as the first sign of platelet activation (Owners et al., Trans. Med. Rev., 8, 27-44, 1994). Characteristic antigens of platelet activation include: glycoprotein 53 (gp53, a lysosomal membrane marker), PECAM-1 (platelet endothelial cell adhesion molecule-1, an alpha granule constituent), and P-selection (an alpha granule membrane protein).

[6] = erythrocytes incubated 37° C. one hour with MβCD

Molecule: methyl-β-cyclodextrin [MβCD]
High Transition, Cooperativity [1, 6]: 0.091 ± 0.020 cm^−1/° C.
High Transition, Transition Temperature [1, 6]: 35.4 ± 1.5 °C
Low Transition, Cooperativity [1, 6]: 0.051 ± 0.004 cm^−1/° C.
Low Transition, Transition Temperature [1, 6]: 15.3 ± 0.8 °C
Middle Transition, Cooperativity [1, 6]: 0.095 ± 0.015 cm^−1/° C.
Middle Transition, Transition Temperature [1, 6]: 25 °C and 26.0 ± 0.8 °C
wavenumber excursion of lipid CH2 band ([1]; from −5 to 45° C., after cholesterol removal (control 0.7)): 2.9 cm⁻¹

water content at which sample enters the glassy state [3]: below 0.15 gram H2O/gram dry wt
effect on growth of the cells ([4]; after the third day): cell count started to drop significantly
morphological changes ([5]; 4 hours at 37° C., 25 mM external trehalose): No morphological changes
platelet morphology ([5]; 4 hours incubation at 37° C. in 75 mM trehalose): swollen
relative proportion of microvesicle gated cells ([5]; 4 hours incubation, flow cytometry): less than 3%
Molecule: OC[C@H]1O[C@H](O[C@H]2O[C@H](CO)[C@@H](O)[C@H](O)[C@H]2O)[C@H](O)[C@@H](O)[C@@H]1O [trehalose]
trehalose uptake [2]: 2.8×10^−11 mol/m^2s
effect on growth of the cells ([4]; up to the third day): did not interfere with growth of the cells

Molecule: CC(C)c1c(C(=O)Nc2ccccc2)c(-c2ccccc2)c(-c2ccc(F)cc2)n1CC[C@@H](O)C[C@@H](O)CC(=O)O [LIPITOR]
total wavenumber excursion ([1]; from −5 to 45° C., erythrocytes of a donor who used LIPITOR (other donors 0.8)): ~1.5 cm⁻¹

Reference: patent US20060223050A1, “Therapeutic platelets and methods” (The Regents of the University of California Office of …, priority 2003, published 2006)
